Results taken from US4652575A, “2-(ethylene-thio methyl furanyl)amino thiazole derivatives having acid secretion inhibiting activity” (Medosan Industrie Biochimiche Riunite S.p.A., priority 1984, dated 1987).
Read-outs that look alike come from different tables or passages of the source.

Columns and labels:
[1] = test system: gastric secretion; assay: Activity on gastric secretion "in vivo" (volume and total acidity of gastric juice after pylorus tieing, Shay); parameters: species or system male Wistar rats; conditions: for Total acidity gastric juice secretion / Volume gastric juice secretion / change in vivo at 20 mg/kg: 20 mg/kg oral
Description: (§1) The preparations were a solution of the substances in 2.5% citric acid for the "in vitro" test and 5% citric acid for the "in vivo" test respectively. Citric acid was diluted in normal physiologic saline at neutral pH.
The ability of the compounds according to the present invention to inhibit the gastric secretion was studied "in vivo" both by evaluating the volume reduction of gastric juice, and by measuring the total acidity of same after administration of the substances under test according to the Takeda method (see the aforementioned literature).
To this end, tests have been made on male Wistar rats of an average weight of 200 g. The animals, 10 for each substance, were placed into individual cages provided with ground grating in order to avoid coprophagy, without food but with free access to water for 24 hours before test. […] Four hours later the animals were sacrificed and the gastric juice was collected, of which the volume expressed in ml and the total acidity expressed in mEq was measured. The gastric juice ([…] ) was titrated with 0.1N NaOH to pH 7 to determine the acid concentration. The total acidity was then calculated as the product of the total volume of gastric juice by the acid concentration.

[2] = molecular target: T1, histamine H2 receptors (Cavia porcellus, UniProt P47747); conditions: Daly M. J., Br. J. Pharmac., 72, 49, 1982; cited from earlier work
T1 construct: tests on insulated atrium auricolas of Guinea pig heart; from tissue; host or cells: isolated guinea pig heart atrium

[3] = Acute toxicity (DL50) in rat; conditions: in vivo, po
From the text: The animals were kept under observation by checking mortality and possible pain signs for 15 days from start of test.

[4] = test system: gastric acid secretion; conditions: experimental tests on animals and humans; prior art; cited from earlier work
[5] = molecular target: T1, histamine H2 receptors; assay: Antagonistic activity to the histamine H2 receptors "in vitro" on insulated atrium auricolas of Guinea pig heart; conditions: guinea pig, 0.5 h; for inhibition at 10 µM: read-out: Antagonizing activity to histamine H2 receptors, compound 1·10^-5 M/L; for inhibition at 1 µM: read-out: Antagonizing activity to histamine H2 receptors, compound 1·10^-6 M/L; for inhibition at 0.1 µM: read-out: Antagonizing activity to histamine H2 receptors, compound 1·10^-7 M/L
Description: as §1
This activity was evaluated "in vitro" by carrying out tests on insulated atrium auricolas of Guinea pig heart. […] Metering was carried out by placing the preparation into a vessel containing a Ringer-Locke solution wherein pure oxygen was bubbling, at a temperature of 37° C. A response of the organ "in vitro" was first established at cumulative histamine doses of 2.5.10^-7, 5.10^-7, 10^-6, 5.10^-6, 10^-5 M/L. After obtaining two constant lines with histamine at a time interval of one hour from one another, the substances under test were added to the bath and after a 30 minutes contact with the preparation, a new histamine response line in the presence of the substance under test was drawn. The activity was tested at various concentrations of the new compounds (10^-5, 10^-6, 10^-7 and in one case 10^-8 M/L).

T1 sequence (P47747 whole entry): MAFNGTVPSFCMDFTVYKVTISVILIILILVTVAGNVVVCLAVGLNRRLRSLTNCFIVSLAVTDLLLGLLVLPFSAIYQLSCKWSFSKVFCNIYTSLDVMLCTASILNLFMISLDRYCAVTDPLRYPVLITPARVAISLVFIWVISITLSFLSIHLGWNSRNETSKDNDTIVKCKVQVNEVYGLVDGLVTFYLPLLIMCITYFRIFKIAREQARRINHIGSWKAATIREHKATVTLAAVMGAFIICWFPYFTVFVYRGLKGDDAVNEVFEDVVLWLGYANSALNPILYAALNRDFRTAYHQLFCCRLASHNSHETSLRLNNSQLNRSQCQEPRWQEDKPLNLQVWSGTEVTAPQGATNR

CNC(=C[N+](=O)[O-])NCCSCc1ccc(CN(C)C)o1 [Ranitidine, reference compound]
Total acidity gastric juice secretion ([1]; 6 hours before pilorus tieing): 0,12 mEq/4 hours | Volume gastric juice secretion ([1]; 6 hours before pilorus tieing): 4,8 ml/4 hours | Total acidity gastric juice secretion ([1]; 12 hours before pilorus tieing): 0,16 mEq/4 hours | Volume gastric juice secretion ([1]; 12 hours before pilorus tieing): 4,9 ml/4 hours | Total acidity gastric juice secretion ([1]; 24 hours before pilorus tieing): 0,17 mEq/4 hours | Volume gastric juice secretion ([1]; 24 hours before pilorus tieing): 5,3 ml/4 hours | Total acidity gastric juice secretion ([1]; 36 hours before pilorus tieing): 0,16 mEq/4 hours | Volume gastric juice secretion ([1]; 36 hours before pilorus tieing): 5,4 ml/4 hours | change in vivo at 20 mg/kg ([1]; Rattus norvegicus, po, 6 hours before pilorus tieing, read-out: Total acidity gastric juice secretion, Variation %): -29% | change in vivo at 20 mg/kg ([1]; Rattus norvegicus, po, 6 hours before pilorus tieing, read-out: Volume gastric juice secretion, Variation %): -9% | change in vivo at 20 mg/kg ([1]; Rattus norvegicus, po, 12 hours before pilorus tieing, read-out: Total acidity gastric juice secretion, Variation %): 6% | change in vivo at 20 mg/kg ([1]; Rattus norvegicus, po, 12 hours before pilorus tieing, read-out: Volume gastric juice secretion, Variation %): -4% | change in vivo at 20 mg/kg ([1]; Rattus norvegicus, po, 24 hours before pilorus tieing, read-out: Total acidity gastric juice secretion, Variation %): 0% | change in vivo at 20 mg/kg ([1]; Rattus norvegicus, po, 24 hours before pilorus tieing, read-out: Volume gastric juice secretion, Variation %): -5% | change in vivo at 20 mg/kg ([1]; Rattus norvegicus, po, 36 hours before pilorus tieing, read-out: Total acidity gastric juice secretion, Variation %): 0% | change in vivo at 20 mg/kg ([1]; Rattus norvegicus, po, 36 hours before pilorus tieing, read-out: Volume gastric juice secretion, Variation %): -3% | ED50 ([1]; Rattus norvegicus, po, per os, 1 hour before pilorus tieing, read-out: DE50 in rat calculated on total acidity (mEq/4 hours)): 5.2 mg/kg | antagonism of histamine induced increase of contraction frequency of the insulated atrium (in words) [2]: competitively antagonize | LD50 [3]: 2000 mg/kg | LD50 at 360 h [3]: 1600 mg/kg | reduction of gastric acid secretion (in words) [4]: effective to reduce the gastric acid secretion | inhibition at 10 µM ([5]; histamine 1·10^-5 M/L): 90% | inhibition at 10 µM ([5]; histamine 1·10^-6 M/L): 100% | inhibition at 10 µM ([5]; histamine 2,5·10^-7 M/L): 100% | inhibition at 10 µM ([5]; histamine 5·10^-6 M/L): 95% | inhibition at 10 µM ([5]; histamine 5·10^-7 M/L): 100% | inhibition at 1 µM ([5]; histamine 1·10^-5 M/L): 36% | inhibition at 1 µM ([5]; histamine 1·10^-6 M/L): 97% | inhibition at 1 µM ([5]; histamine 2,5·10^-7 M/L): 100% | inhibition at 1 µM ([5]; histamine 5·10^-6 M/L): 67% | inhibition at 1 µM ([5]; histamine 5·10^-7 M/L): 100% | inhibition at 0.1 µM ([5]; histamine 1·10^-5 M/L): 2% | inhibition at 0.1 µM ([5]; histamine 1·10^-6 M/L): 45% | inhibition at 0.1 µM ([5]; histamine 2,5·10^-7 M/L): 85% | inhibition at 0.1 µM ([5]; histamine 5·10^-6 M/L): 25% | inhibition at 0.1 µM ([5]; histamine 5·10^-7 M/L): 70%
